Structures are written as SMILES.

The subject of one series is GAL controlled YFP. Description: GAL1-induced expression, flow cytometry of GAL controlled YFP. The class given is cell-based, yeast. The settings on record: flow cytometry of GAL controlled YFP (data not shown). Here is the method: (§1) To further test the effect of clioquinol, a control strain and a strain expressing toxic levels of Aβ were grown in liquid culture with various concentrations of the compound.
A strain carrying an integrated YFP was transformed with the putative Aβ suppressors. The resulting strains were grown in glucose media in a 96 well format, diluted into the various inducing media (galactose, glucose+1 uM estradiol, glycerol+1 uM estradiol) [5 ul culture added to 120 ul media], and incubated over night at 30° C. with mild shaking. These overnight cultures were diluted 20 fold into water and YFP levels were measured using a Guava flow cytometer. Each strain was measured 3 times and 5000 cells were counted for each well. The whole experiment was repeated 3 times. Values are averages of these 3 experiments and reported in percent of the vector control strain YFP levels.
For orientation: A flow cytometer gives signals particle by particle.

The test system of the next series is ssAβ 1-42 strain. The series can be described thus: Clioquinol rescue in liquid culture (Bioscreen OD600 growth). The settings on record: for growth of the Aβ expressing strain: inducing (galactose) media, various concentrations; for growth at the optimal concentration compared with control strain: control strain expressing YFP. It counts as cell-based, yeast. As to the method: as §1
Yeast strains were grown overnight to saturation in synthetic medium with glucose as the carbon source after inoculation from a colony. These cultures were used to inoculate raffinose cultures. Raffinose cultures in log phase growth (OD600 0.7-0.9) were diluted to an OD600 of 0.03 in synthetic medium with galactose as the carbon source, and […] of the cell suspension was distributed to each well of a Bioscreen plate. […] of clioquinol (Sigma C8133, ˜95%), dissolved in DMSO at 100 times the final intended concentration, was added to each well. A Labsystems Bioscreen C was used to maintain the plate at 30 degrees C. and make OD600 measurements on each well at 10-minute intervals over a period of approximately three days. Each condition was performed in duplicate.

As for `Oc1c(I)cc(Cl)c2cccnc12` [clioquinol], in the series on GAL controlled YFP, the “effect on GAL1-induced expression” value was “did not diminish GAL1-induced expression”. Also, the “toxicity at higher concentrations” value in the series on ssAβ 1-42 strain (higher concentrations, ssAβ 1-42 strain and YFP control strain) is “toxic to both strains”. Besides, in the series on ssAβ 1-42 strain, the “growth of the Aβ expressing strain” value is listed as “rescued growth levels in a dose dependent manner” and the “growth at the optimal concentration compared with control strain” value is given as “restored growth levels to those of a control strain expressing YFP”. Also, in the series with ssAβ 1-42 strain (listed as Clioquinol), the “growth of the Aβ expressing strain” value is listed as “improved the growth of the Aβ expressing strain in a dose dependent manner” and the “growth at the optimal concentration compared with control strain” value is “nearly as robust as that of the control strain”.

(Values after patent US20130045483A1, “YEAST CELLS EXPRESSING AMYLOID BETA AND USES THEREFOR” (priority 2011, published 2013).)
